Measured values as given in patent publication US10473662B2, “Diagnostic and prognostic markers for cancer” (Wake Forest University Health Sciences, priority 2009, dated 2019).

Tests used:
[1] = system: ferritin H; experiment: Western blot of ferritin H in hepcidin-treated cells; type: cell-based, human; conditions: HME cells, 300 nM or 700 nM hepcidin for 6 hours (FIG. 3C)
Procedure: (§1) Human mammary epithelial (HME) cells were obtained from Lonza (Rockland, Me.). HME cells transduced with h-TERT, SV40 T antigen and high levels of H-ras are termed R5 cells in this report and were a generous gift from the laboratory of Dr. Robert Weinberg, Boston, Mass. (14). All cells were maintained at 37° C. in a humidified atmosphere containing 5% CO2. Cells were maintained in Dulbecco's […] (DMEM-F12) medium (Gibco/BRL [Grand Island, N.Y.]) supplemented with L-glutamine, 10 μg/ml insulin, 10 ng/ml human epidermal growth factor, and 0.5 μg/ml hydrocortisone for 24 hrs prior to harvest. MCF7 and MCF10A cell lines were obtained from the Wake Forest University Comprehensive Cancer Center Tissue Culture Core facility. […]
(§2) Cells were washed once in phosphate-buffered saline (PBS) and scraped. […] Total protein concentrations were determined using BCA reagent (Pierce). […] Ferritin H was detected as previously described (49). Ferroportin was detected using anti-ferroportin-1 antibody (MTP-1, Alpha Diagnostics) followed by horseradish peroxidase conjugated goat anti-rabbit secondary antibody (Bio-Rad). […] Prohepcidin was detected using a rabbit polyclonal antibody (Hepcidin-25 antibody, ab75883, Abcam) followed by horseradish peroxidase conjugated goat anti-rabbit secondary antibody (Bio-Rad). […]

[2] = system: HME cells; experiment: Labile iron pool assay (calcein) in hepcidin-treated cells; type: cell-based, human; conditions: 700 nM hepcidin or vehicle control (FIG. 3B)
Procedure: as §1, with “facility. SUM149 and SUM102 cell lines were a generous gift of Dr. I. Berquin, Wake Forest University School of Medicine.” for “facility.”
The cellular labile iron pool (LIP) was measured with the fluorescent metallosensor calcein, essentially as described (20). […] Fluorescence was measured at 485 nm excitation and 535 nm emission with a fluorescence plate reader (fmax Fluorescence Microplate Reader, Molecular Devices). After the fluorescence signal was stabilized, SIH was added to remove iron from calcein, causing dequenching. The change in fluorescence following the addition of SIH (ΔF) was used as a measure of the labile iron pool.

[3] = target: T1, ferroportin (Homo sapiens, UniProt Q9NP59); experiment: Western blot of ferroportin in hepcidin-treated cells; type: cell-based; conditions: HME cells, 300 or 700 nM hepcidin for 6 hours (FIG. 3D)
T1 construct: endogenous in cells; host or cells: primary human mammary epithelial (HME) cells (Lonza)
T1 sequence (Q9NP59 1-571): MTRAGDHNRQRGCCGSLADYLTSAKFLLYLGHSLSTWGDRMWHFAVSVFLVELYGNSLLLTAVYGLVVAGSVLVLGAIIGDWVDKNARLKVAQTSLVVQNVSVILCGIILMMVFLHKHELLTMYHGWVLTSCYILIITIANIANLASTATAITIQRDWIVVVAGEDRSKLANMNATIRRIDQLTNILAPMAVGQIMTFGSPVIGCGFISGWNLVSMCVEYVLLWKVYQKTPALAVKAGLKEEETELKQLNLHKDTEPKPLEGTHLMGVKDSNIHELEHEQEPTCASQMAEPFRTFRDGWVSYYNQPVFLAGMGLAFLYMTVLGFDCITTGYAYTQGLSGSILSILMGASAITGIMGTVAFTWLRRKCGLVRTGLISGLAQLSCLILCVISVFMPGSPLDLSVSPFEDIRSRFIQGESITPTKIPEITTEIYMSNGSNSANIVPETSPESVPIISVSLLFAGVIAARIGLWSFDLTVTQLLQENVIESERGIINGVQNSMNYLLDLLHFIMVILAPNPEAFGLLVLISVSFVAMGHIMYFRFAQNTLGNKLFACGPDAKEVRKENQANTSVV
Procedure: as §1, §2

ferroportin protein (Western blotting) [3]: Ferroportin is degraded
Substance: Hepcidin: Peptide hormone that binds ferroportin and triggers its degradation; obtained from Peptides International, dissolved in water
levels of ferritin protein (ferritin H, Western blotting) [1]: increases levels of ferritin protein | labile iron pool [2]: increases the labile iron pool
